Results reported in patent US20250059220A1, “SUBSTITUTED BENZOTHIOPHENE DERIVATIVES AND METHODS OF USE THEREOF” (Merck Sharp & Dohme LLC, priority 2021, published 2025).

Experiments:
[1] = target: human PTPN2 (1-387) (Homo sapiens (Human), UniProt P17706); assay: Human PTPN2 Biochemical Assay; settings: DiFMUP substrate
Outline: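 Human PTPN2 (1-387) preincubated 30 min at RT with compound (10-point 3-fold series) in Tris pH 7.4 buffer with 0.5 mM DTT, then DiFMUP substrate added for 1 h at RT. Fluorescence at ex 360/em 460 nm, normalised to no-enzyme and enzyme controls; EC50 from 4-parameter fit.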

[2] = target: human PTPN1 (1-435) (Homo sapiens (Human), UniProt P18031); assay: Human PTPN1 Biochemical Assay; settings: DiFMUP substrate, read-out: PTP1B IC50
Sequence of human PTPN1 (1-435) (P18031 whole entry): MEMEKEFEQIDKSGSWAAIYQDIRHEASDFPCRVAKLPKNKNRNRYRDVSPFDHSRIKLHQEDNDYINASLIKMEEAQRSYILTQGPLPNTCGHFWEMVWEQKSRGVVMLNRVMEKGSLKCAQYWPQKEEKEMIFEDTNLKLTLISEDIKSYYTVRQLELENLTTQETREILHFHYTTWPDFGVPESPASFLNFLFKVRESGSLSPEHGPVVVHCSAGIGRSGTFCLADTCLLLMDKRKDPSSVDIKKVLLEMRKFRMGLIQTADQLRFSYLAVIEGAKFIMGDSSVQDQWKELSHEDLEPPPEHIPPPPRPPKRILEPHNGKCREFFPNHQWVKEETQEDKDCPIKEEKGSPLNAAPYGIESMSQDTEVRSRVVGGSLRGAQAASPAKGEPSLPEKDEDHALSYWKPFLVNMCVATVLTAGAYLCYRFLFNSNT
Outline: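 Read-out is DiFMUP hydrolysis fluorescence (360 nm excitation, 460 nm emission) after 1 h at room temperature, following 30 min enzyme–compound preincubation.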

Sequence of human PTPN2 (1-387) (P17706 other isoform, or with tags, fused parts or gaps): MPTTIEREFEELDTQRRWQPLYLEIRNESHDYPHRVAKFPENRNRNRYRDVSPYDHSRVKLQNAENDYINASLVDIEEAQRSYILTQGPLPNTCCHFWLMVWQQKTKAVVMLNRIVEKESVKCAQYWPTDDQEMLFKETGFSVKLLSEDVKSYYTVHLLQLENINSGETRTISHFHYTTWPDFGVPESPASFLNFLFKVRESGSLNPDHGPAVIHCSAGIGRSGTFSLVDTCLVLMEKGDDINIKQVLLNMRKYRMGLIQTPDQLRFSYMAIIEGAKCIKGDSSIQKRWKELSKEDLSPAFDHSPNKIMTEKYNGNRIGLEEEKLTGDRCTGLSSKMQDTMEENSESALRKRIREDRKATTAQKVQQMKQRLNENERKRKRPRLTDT

Compound	IC50 [1]	IC50 [2]
O=C(Nc1ccccc1)c1ccc2sc(C(F)(F)P(=O)(O)O)c(Br)c2c1 [Compound 1, ((3-bromo-5-(phenylcarbamoyl)benzo[b]thiophen-2-yl)difluoromethyl)phosphonic acid]	3010 nM	1610 nM
CS(=O)(=O)NCc1cc(OCCCC(F)(F)F)c2sc(C(F)(F)P(=O)(O)O)c(Br)c2c1 [Compound 450, ((3-bromo-5-(methylsulfonamidomethyl)-7-(4,4,4-trifluorobutoxy)benzo[b]thiophen-2-yl)difluoromethyl)phosphonic acid]	227 nM	175 nM
CN1C[C@H]2[C@H](CNC(=O)c3ccc4sc(C(F)(F)P(=O)(O)O)c(Br)c4c3)[C@H]2c2ccccc21 [Compound 78]	1030 nM	1090 nM
NS(=O)(=O)CCCOc1cc(-c2cnn[nH]2)cc2c(Br)c(C(F)(F)P(=O)(O)O)sc12 [Compound 365]	2.5 nM	2.5 nM
N#Cc1ccc2cc(C(F)(F)P(=O)(O)O)sc2c1Br [Compound 297, ((7-bromo-6-cyanobenzo[b]thiophen-2-yl)difluoromethyl)phosphonic acid]	26500 nM	7350 nM
CC(NC(=O)c1ccc2sc(C(F)(F)P(=O)(O)O)c(Br)c2c1)c1cccc2ccccc12 (stereo not shown) [Compound 71]	3530 nM	3650 nM
O=C(NC[C@]12C[C@@H]1CCN2Cc1ccccc1)c1ccc2sc(C(F)(F)P(=O)(O)O)c(Br)c2c1 [Compound 88]	1510 nM	1090 nM
CS(=N)(=O)Cc1cc(OCCCC(F)(F)F)c2sc(C(F)(F)P(=O)(O)O)c(Br)c2c1 (single isomer, unassigned) [Compound 411, ((3-bromo-5-(((R or S)-methylsulfonimidoyl)methyl)-7-(4,4,4-trifluorobutoxy)benzo[b]thiophen-2-yl)difluoromethyl)phosphonic acid]	251 nM	299 nM
CC(CC1C=Nc2ccc(F)cc21)NC(=O)c1ccc2sc(C(F)(F)P(=O)(O)O)c(Br)c2c1 (stereo not shown) [Compound 151]	5980 nM	2740 nM
Cn1cnc(CNC(=O)c2ccc3sc(C(F)(F)P(=O)(O)O)c(Br)c3c2)c1 [Compound 178]	5820 nM	10800 nM
Cc1cc(C)n(-c2ccccc2NC(=O)c2ccc3sc(C(F)(F)P(=O)(O)O)c(Br)c3c2)n1 [Compound 118]	6170 nM	5910 nM
O=C(Nc1ccccc1-c1ccccc1)c1ccc2sc(C(F)(F)P(=O)(O)O)c(Br)c2c1 [Compound 62]	1610 nM	2000 nM
O=C(NCc1nnc2n1CCC2)c1ccc2sc(C(F)(F)P(=O)(O)O)c(Br)c2c1 [Compound 51]	1350 nM	1110 nM
C[C@@H](Cc1cccc(C(F)(F)F)c1)NC(=O)c1ccc2sc(C(F)(F)P(=O)(O)O)c(Br)c2c1 [Compound 69]	4160 nM	6250 nM
O=C(NCc1ccc(C(F)(F)F)nc1)c1ccc2sc(C(F)(F)P(=O)(O)O)c(Br)c2c1 [Compound 121]	3100 nM	2310 nM
O=C(NC1(c2cccnc2)CC1)c1ccc2sc(C(F)(F)P(=O)(O)O)c(Br)c2c1 [Compound 180]	6630 nM	13700 nM
O=C(Nc1ccc(Sc2ccccc2)nc1)c1ccc2sc(C(F)(F)P(=O)(O)O)c(Br)c2c1 [Compound 100]	682 nM	540 nM
O=C(Nc1ccc(F)cc1)c1ccc2sc(C(F)(F)P(=O)(O)O)c(Br)c2c1 [Compound 25]	3160 nM	2570 nM
Cc1c[nH]c(CNC(=O)c2ccc3sc(C(F)(F)P(=O)(O)O)c(Br)c3c2)c(C)c1=O [Compound 129]	2640 nM	2230 nM
O=C(Nc1ccc2sc(C(F)(F)P(=O)(O)O)c(Br)c2c1)c1ccc(F)cc1 [Compound 212, ((3-bromo-5-(4-fluorobenzamido)benzo[b]thiophen-2-yl)difluoromethyl)phosphonic acid]	9660 nM	8150 nM
N#Cc1cc(C(=O)NCc2c[nH]nn2)cc2c(Br)c(C(F)(F)P(=O)(O)O)sc12 [Compound 162]	222 nM	244 nM
N=C(N)c1cc(OCCCC(F)(F)F)c2sc(C(F)(F)P(=O)(O)O)c(Br)c2c1 [Compound 262, ((3-bromo-5-carbamimidoyl-7-(4,4,4-trifluorobutoxy)benzo[b]thiophen-2-yl)difluoromethyl)phosphonic acid]	113 nM	42 nM

More lines, now with the values ahead:

IC50 [1]	IC50 [2]	Compound
79.6 nM	92.3 nM	NC(=O)c1cc(OCc2cccc(C(F)(F)F)c2)c2sc(C(F)(F)P(=O)(O)O)c(Br)c2c1 [Compound 383]
1860 nM	2120 nM	O=C(Nc1cccc(F)c1)c1ccc2sc(C(F)(F)P(=O)(O)O)c(Br)c2c1 [Compound 33]
9.79 nM	11.6 nM	O=C(NC1CC1(F)F)c1cc(OCCCC(F)(F)F)c2sc(C(F)(F)P(=O)(O)O)c(Br)c2c1 (stereo not shown) [Compound 207]
21.6 nM	23.3 nM	CS(=O)(=O)CCCOc1cc(C(N)=O)cc2c(Br)c(C(F)(F)P(=O)(O)O)sc12 [Compound 270]
6.69 nM	19.7 nM	N#Cc1c(C(F)(F)P(=O)(O)O)sc2c(OCCCC(F)(F)F)cc(C(N)=O)cc12 [Compound 424]
47.9 nM	68.4 nM	N#CCCCCCCOc1cc(C(N)=O)cc2c(Br)c(C(F)(F)P(=O)(O)O)sc12 [Compound 243]
359 nM	323 nM	CS(=N)(=O)Cc1cc(OCCCC(F)(F)F)c2sc(C(F)(F)P(=O)(O)O)c(Br)c2c1 (stereo not shown) [Compound 412]
550 nM	1390 nM	O=C(NCCC1CC1)c1ccc2sc(C(F)(F)P(=O)(O)O)c(Br)c2c1 [Compound 59]
6.95 nM	7.5 nM	O=C(Nc1ccccc1)c1cc(OCCCC(F)(F)F)c2sc(C(F)(F)P(=O)(O)O)c(Br)c2c1 [Compound 205]
4910 nM	4210 nM	O=C(NCCCC(F)(F)F)c1ccc2sc(C(F)(F)P(=O)(O)O)c(Br)c2c1 [Compound 47]
119 nM	99.3 nM	Cc1c(C(F)(F)P(=O)(O)O)sc2c(OCCCC(F)(F)F)cc(C(N)=O)cc12 [Compound 431]
6930 nM	5160 nM	O=C(NCC1CC(F)(F)C1)c1ccc2sc(C(F)(F)P(=O)(O)O)c(Br)c2c1 [Compound 28]
17.4 nM	16 nM	CC(C)(C#N)CCCOc1cc(C(N)=O)cc2c(Br)c(C(F)(F)P(=O)(O)O)sc12 [Compound 278]
9700 nM	7620 nM	CC(C)CNC(=O)c1ccc2sc(C(F)(F)P(=O)(O)O)c(Br)c2c1 [Compound 55]
77.7 nM	65.8 nM	NC(=O)c1cc(OCCCNS(=O)(=O)C(F)(F)F)c2sc(C(F)(F)P(=O)(O)O)c(Br)c2c1 [Compound 334]
200 nM	191 nM	O=C(O)c1cc(OCCCC(F)(F)F)c2sc(C(F)(F)P(=O)(O)O)c(Br)c2c1 [Compound 407]

IC50 [1]	IC50 [2]	Compound
2690 nM	2030 nM	O=P(O)(O)C(F)(F)c1sc2c(NCCCC(F)(F)F)cccc2c1Br [Compound 226, ((3-bromo-7-((4,4,4-trifluorobutyl)amino)benzo[b]thiophen-2-yl)difluoromethyl)phosphonic acid]
112 nM	152 nM	COc1cc(COc2cc(C(N)=O)cc3c(Br)c(C(F)(F)P(=O)(O)O)sc23)ccc1C#N [Compound 363]
2.5 nM	2.5 nM	CS(=O)(=O)CCCOc1cc(-c2nc[nH]n2)cc2c(Br)c(C(F)(F)P(=O)(O)O)sc12 [Compound 439, ((3-bromo-7-(3-(methylsulfonyl)propoxy)-5-(1H-1,2,4-triazol-3-yl)benzo[b]thiophen-2-yl)difluoromethyl)phosphonic acid]
16.3 nM	118 nM	NC(=O)c1cc(OCc2ccc(-n3ccnc3)cc2)c2sc(C(F)(F)P(=O)(O)O)c(Br)c2c1 [Compound 355]
9.7 nM	11.5 nM	N#Cc1c(C(F)(F)P(=O)(O)O)sc2c(OCCCS(N)(=O)=O)cc(C(N)=O)cc12 [Compound 423]
65 nM	57.5 nM	CC(C)=CCCOc1cc(C(N)=O)cc2c(Br)c(C(F)(F)P(=O)(O)O)sc12 [Compound 307]
6530 nM	4900 nM	Cc1noc(C)c1CCNC(=O)c1ccc2sc(C(F)(F)P(=O)(O)O)c(Br)c2c1 [Compound 43]
2.5 nM	2.5 nM	O=P(O)(O)C(F)(F)c1sc2c(OCC3CC3(F)F)cc(-c3nc[nH]n3)cc2c1Br (stereo not shown) [Compound 441]
29.9 nM	41 nM	CNC(=O)c1cc(OCCCCS(C)(=O)=O)c2sc(C(F)(F)P(=O)(O)O)c(Br)c2c1 [Compound 324]
4730 nM	4570 nM	CC1CCCC(NC(=O)c2ccc3sc(C(F)(F)P(=O)(O)O)c(Br)c3c2)C1 (stereo not shown) [Compound 98]
76.9 nM	40 nM	NC(=O)c1cc(OCCC2CC2(F)F)c2sc(C(F)(F)P(=O)(O)O)c(Br)c2c1 (stereo not shown) [Compound 286]
4.63 nM	6.5 nM	O=C(NCc1c[nH]nn1)c1cc(OCCCC(F)(F)F)c2sc(C(F)(F)P(=O)(O)O)c(Br)c2c1 [Compound 209]
351 nM	299 nM	NC(=O)c1cc(OCc2cc(C(F)(F)F)cc(C(F)(F)F)c2)c2sc(C(F)(F)P(=O)(O)O)c(Br)c2c1 [Compound 384]
108 nM	69 nM	C[C@@H]1C[C@@]1(F)COc1cc(C(N)=O)cc2c(Br)c(C(F)(F)P(=O)(O)O)sc12 [Compound 277]
6.81 nM	7.5 nM	CNC(=O)c1cc(OCCCS(N)(=O)=O)c2sc(C(F)(F)P(=O)(O)O)c(Br)c2c1 [Compound 320]
